This passage reports inhibition and IC50 results from patent US7504517B2, “Kv1.5 potassium channel inhibitors” (Wyeth, priority 2006, dated 2009).

SMILES strings stand for the structures. pIC50: −log10 of the molar value.

The target in one data set is T1, Kv1.5 (Homo sapiens, UniProt P22460).
T1 construct: expressed in transfected cells; host or cells: HEK or LTK- cells
The experiment in a line: Kv1.5 Patch Clamp EP. Particulars: whole cell patch clamp; for inhibition at 1 µM: single point, Kv1.5 stably over expressed in HEK or LTK- cells; for pIC50: HEK or LTK- cells, at least four concentrations, n=3. In kind it is cell-based. The procedure: The external solution is standard Tyrodes solution. […] Inhibition was measured at the end of the 1 second pulses and expressed relative to controls. Initial Kv1.5 inhibition is estimated by single point determinations done at 1 μM.
A general note: In patch-clamp work, channel activity is measured electrically.

For another data set, the target named is HERG (Homo sapiens, UniProt Q12809). The experiment in a line: HERG Patch Clamp EP. The conditions noted are these: for inhibition at 10 µM: human, HEK cells stably overexpressing HERG.
Another data set has as its system L-type calcium channels. The experiment in a line: FLIPR L-Type Calcium Channel Assay. In kind it is cell-based, murine. Particulars: HL-1 cells expressing endogenous L-type calcium channels; calcium influx after 20 mM KCl; read-out: L-type Ca^2+ IC50. In a few lines:
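After a 15 min compound pre-incubation at 37 °C with 2.5 mM probenecid, L-type channels were opened by depolarising with 20 mM KCl (final). Fluorescence (488 nm excitation, 510–570 nm emission) was read for 5 min.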

The inhibition is the change of the read-out against control, counted positive when it falls. Higher therefore signals a strong effect. Usually pIC50 stands for the IC50 on a negative log10 scale, so that one unit is a factor of ten.

Sequence of HERG (Q12809 whole entry): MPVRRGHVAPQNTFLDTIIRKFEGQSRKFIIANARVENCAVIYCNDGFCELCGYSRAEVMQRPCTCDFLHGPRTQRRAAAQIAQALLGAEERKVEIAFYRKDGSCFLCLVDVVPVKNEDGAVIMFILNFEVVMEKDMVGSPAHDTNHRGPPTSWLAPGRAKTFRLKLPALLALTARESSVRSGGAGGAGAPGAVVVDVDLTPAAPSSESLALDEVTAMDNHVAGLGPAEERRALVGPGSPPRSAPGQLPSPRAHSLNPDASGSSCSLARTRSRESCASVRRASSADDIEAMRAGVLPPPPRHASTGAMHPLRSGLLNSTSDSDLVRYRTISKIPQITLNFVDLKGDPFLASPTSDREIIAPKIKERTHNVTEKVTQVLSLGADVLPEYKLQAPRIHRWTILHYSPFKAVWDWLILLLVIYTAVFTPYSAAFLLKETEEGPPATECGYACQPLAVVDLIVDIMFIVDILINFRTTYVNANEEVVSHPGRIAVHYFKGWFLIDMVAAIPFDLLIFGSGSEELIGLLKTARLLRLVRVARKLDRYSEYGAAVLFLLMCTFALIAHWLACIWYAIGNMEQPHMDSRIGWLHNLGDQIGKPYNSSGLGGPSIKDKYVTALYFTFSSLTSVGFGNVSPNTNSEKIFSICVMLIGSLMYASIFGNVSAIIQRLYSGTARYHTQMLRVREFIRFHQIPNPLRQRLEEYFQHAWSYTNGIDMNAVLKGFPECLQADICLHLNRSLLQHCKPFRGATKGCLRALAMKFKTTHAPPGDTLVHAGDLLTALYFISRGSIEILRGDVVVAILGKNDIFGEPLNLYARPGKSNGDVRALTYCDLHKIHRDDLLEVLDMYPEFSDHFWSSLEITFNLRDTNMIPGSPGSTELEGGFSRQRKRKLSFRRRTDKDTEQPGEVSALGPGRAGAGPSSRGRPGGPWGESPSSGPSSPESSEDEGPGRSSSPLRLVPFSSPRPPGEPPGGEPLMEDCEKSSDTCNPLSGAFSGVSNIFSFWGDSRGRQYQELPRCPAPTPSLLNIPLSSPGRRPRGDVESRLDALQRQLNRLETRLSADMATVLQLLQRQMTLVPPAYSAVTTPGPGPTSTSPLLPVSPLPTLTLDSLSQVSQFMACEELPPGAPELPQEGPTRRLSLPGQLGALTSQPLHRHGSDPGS
T1 sequence (P22460 whole entry): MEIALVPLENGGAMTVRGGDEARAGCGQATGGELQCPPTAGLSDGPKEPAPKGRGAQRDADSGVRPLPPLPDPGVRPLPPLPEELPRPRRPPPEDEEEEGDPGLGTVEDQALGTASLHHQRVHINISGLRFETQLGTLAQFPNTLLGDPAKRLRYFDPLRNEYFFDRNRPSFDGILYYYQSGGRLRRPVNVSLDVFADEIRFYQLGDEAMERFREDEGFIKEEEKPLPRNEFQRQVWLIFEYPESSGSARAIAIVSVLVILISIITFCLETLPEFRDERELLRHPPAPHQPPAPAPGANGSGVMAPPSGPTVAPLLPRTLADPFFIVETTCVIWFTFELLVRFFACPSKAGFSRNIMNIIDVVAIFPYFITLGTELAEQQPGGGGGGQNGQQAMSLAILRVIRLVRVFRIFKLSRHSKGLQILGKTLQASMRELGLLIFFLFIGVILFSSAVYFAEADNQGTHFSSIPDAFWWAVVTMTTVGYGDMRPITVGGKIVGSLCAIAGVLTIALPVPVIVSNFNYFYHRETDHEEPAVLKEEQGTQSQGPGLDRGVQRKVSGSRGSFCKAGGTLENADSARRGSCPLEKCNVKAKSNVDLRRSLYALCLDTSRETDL
Procedure for HERG: HERG currents are recorded by the whole cell mode of patch clamp electrophysiology as described by Hamill et al.^3 HERG is stably over expressed in HEK cells. Microelectrodes are pulled from borosilicate glass (TW150) and heat polished (tip resistance, 1.5 to 3 megaohms). The external solution is standard Tyrodes solution. The internal (microelectrode) solution contained: 110 mM KCl, 5 mM K2ATP, 5 mM K4BAPTA, 1 mM MgCl2 and 10 mM HEPES, adjusted to pH 7.2 with KOH. […] Compounds are prepared as 10-20 mM DMSO stocks and diluted to appropriate test concentrations. […] Inhibition of HERG is measured at the peak of the tail currents and expressed relative to controls. Initial HERG activity is estimated by single point determinations run at 10 μM. Concentration response curves are generated for appropriate compounds utilizing at least four concentrations and an n=3. Curve fitting and IC50 estimating are done using Graphpad software (Ver. 4). • 1.

At Kv1.5, `COc1ccc(CCN2C(=O)N(NCc3ccc(C#N)cc3)CC2c2ccc(C)c(C)c2)cc1` (centres unmarked) [Compound 83, 1-[(4-Cyanophenylmethyl)amino]-3-[2-(4-methoxyphenyl)ethyl]-4-(3,4-dimethylphenyl)-2-imidazolidinone] came in with an inhibition at 1 µM of 96%. The compound further displayed an inhibition at 10 µM on HERG of 97%. In addition, the pIC50 with L-type calcium channels is 5.55.
On Kv1.5, `COc1ccc(CCN2C(=O)N(NCc3ccncc3)CC2c2ccc(C)c(C)c2)cc1` (centres unmarked) [Compound 84, 4-(3,4-Dimethylphenyl)-3-[2-(4-methoxyphenyl)ethyl]-1-[(pyridin-4-ylmethyl)amino]-imidazolidin-2-one] had an inhibition at 1 µM of 67% and a pIC50 of 6.24. Besides, the inhibition at 10 µM at HERG was 73%. Further, the pIC50 in the data set on L-type calcium channels is 5.00.
Turning to `COc1ccc(CCN2C(=O)N(NS(C)(=O)=O)C[C@H]2c2ccc(OC)cc2)cc1` [Compound 106, 1-(Methylsulfonylamino)-3-[2-(4-methoxyphenyl)ethyl]-4-(R)-(4-methoxyphenyl)-2-imidazolidinone], at Kv1.5, the inhibition at 1 µM is 74% and the negative logarithm of the IC50 (pIC50) was 6.32. For the same compound, on HERG, the negative logarithm of the IC50 (pIC50) was 4.46 and testing at 10 µM gave an inhibition of 17%. For the same compound, in the data set with L-type calcium channels, the pIC50 was 4.52.
Regarding `COc1ccc(CCN2C(=O)N(NS(=O)(=O)Cc3ccccc3)CC2c2ccc(C)c(C)c2)cc1` (centres unmarked) [Compound 43, 1-[(Phenylmethyl)sulfonylamino]-3-[2-(4-methoxyphenyl)ethyl]-4-(3,4-dimethyl-phenyl)-2-imidazolidinone], on Kv1.5, 1 µM produced 93% inhibition. For the same compound, at 10 µM the inhibition against HERG was 2%. Besides, the pIC50 in the data set with L-type calcium channels was 5.37.
In the same order, the values of `COc1ccc(CCN2C(=O)N(NS(=O)(=O)CF)CC2c2ccc3c(c2)OCCO3)cc1` (centres unmarked) [Compound 37, 1-(Fluoromethylsulfonylamino)-3-[2-(4-methoxyphenyl)ethyl]-4-[(2,3dihydro-benzo[b][1,4]dioxin-6-yl)]-2-imidazolidinone] are 87%, 6% and 4.52.
For `COc1ccc(CCN2C(=O)N(NS(=O)(=O)CCS(C)(=O)=O)CC2c2ccc(C3CC3)cc2)cc1` (centres unmarked) [Compound 114, N-{4-(4-cyclopropylphenyl)-3-[2-(4-methoxyphenyl)ethyl]-2-oxoimidazolidin-1-yl}-2-(methylsulfonyl)ethanesulfonamide] the same measures were 75%, 55% and 4.82.
For `CCN(CC)c1ccc(C2CN(NS(C)(=O)=O)C(=O)N2CCc2ccc(OC)cc2)cc1` (centres unmarked) [Compound 25, 1-(Methylsulfonylamino)-3-[2-(4-methoxyphenyl)ethyl]-4-[(4-diethylamino)-phenyl]-2-imidazolidinone] the same measures were 84%, 31% and 4.55.
On to `COc1ccc(CCN2C(=O)N(NS(C)(=O)=O)CC2c2ccc(C(C)(C)C)cc2)cc1` (centres unmarked) [Compound 24, 1-(Methylsulfonylamino)-3-[(4-methoxyphenyl)ethyl]-4-[4-(tert-butyl)phenyl]-imidazolidinone], for which, on Kv1.5, the inhibition at 1 µM came to 82% and the negative-log IC50 (pIC50) is 6.29. In addition, at HERG, the negative logarithm of the IC50 (pIC50) is 5.19 and testing at 10 µM gave an inhibition of 74%. In addition, the negative logarithm of the IC50 (pIC50) in the data set with L-type calcium channels was 5.00.
The compound `COc1ccc(CCCN2C(=O)N(N)CC2c2ccc(C3CC3)cc2)cc1` (centres unmarked) [Compound 4, 1-Amino-4-(4-cyclopropylphenyl)-3-[3-(4-methoxyphenyl)propyl]-2-imidazolidinone] showed an inhibition at 1 µM on Kv1.5 of 72%. On HERG, this compound gave an inhibition at 10 µM of 53%. The pIC50 with L-type calcium channels was 5.35.
Consider `COc1ccc(CCN2C(=O)N(NS(=O)(=O)CC(=O)NC3CC3)CC2c2ccc(C3CC3)cc2)cc1` (centres unmarked) [Compound 51, 1-[[2-(Cyclopropylamino)-2-oxoethyl]sulfonylamino]-3-[2-(4-methoxyphenyl)ethyl]-4-(4-cyclopropylphenyl)-2-imidazolidinone], for which the inhibition at 1 µM at Kv1.5 came to 87%. Moreover, 10 µM produced 20% inhibition on HERG. In addition, the pIC50 with L-type calcium channels was 4.68.
In the same order, the values of `CC(C)(C)c1ccc(C2CN(NS(C)(=O)=O)C(=O)N2CCCc2ccccc2)cc1` (centres unmarked) [Compound 47, 1-(Methylsulfonylamino)-3-(3-phenylpropyl)-4-[4-(tert-butyl)phenyl]-2-imidazolidinone] are 73%, 65% and 4.59.
In the same order, the values of `COc1ccc(CCN2C(=O)N(NS(N)(=O)=O)CC2c2ccc(C)c(C)c2)cc1` (centres unmarked) [Compound 8, 1-(Aminosulfonylamino)-3-[2-(4-methoxyphenyl)ethyl]-4-(3,4-dimethylphenyl)-2-imidazolidinone] are 90%, 16% and 4.82.
`COc1ccc(CCCN2C(=O)N(NS(C)(=O)=O)CC2c2ccc(OC)cc2)cc1` (centres unmarked) [Compound 49, 1-(Methylsulfonylamino)-3-[3-(4-methoxyphenyl)propyl]-4-[(4-methoxy)-phenyl]-2-imidazolidinone]: on Kv1.5, 1 µM produced 76% inhibition and the pIC50 was 6.33. On HERG, the pIC50 is 4.94 and the inhibition at 10 µM was 25%. Moreover, in the data set on L-type calcium channels, the pIC50 is 4.64.
`COc1ccc(CCN2C(=O)N(NC(=O)CS(=O)(=O)N(C)C)CC2c2ccc(C3CC3)cc2)cc1` (centres unmarked) [Compound 82, N-(4-(4-cyclopropylphenyl)-3-(4-methoxyphenethyl)-2-oxoimidazolidin-1-yl)-2-(N,N-dimethylsulfamoyl)acetamide] returned an inhibition at 1 µM on Kv1.5 of 72%. At HERG, this compound registered an inhibition at 10 µM of 42%. For the same compound, the pIC50 with L-type calcium channels is 4.52.
For `COc1ccc(CCN2C(=O)N(N(CCn3ccnc3)C(=O)C(C)C)CC2c2ccc(C(C)(C)C)cc2)cc1` (centres unmarked) [Compound 99, 1-N-[2-(Imidazol-1-yl)ethyl]-N-[iso-butyroyl]amino-3-[2-(4-methoxyphenyl)-ethyl]-4-[(4-tert-butyl)phenyl]-2-imidazolidinone] the same measures were 73%, 90% and 5.31.
The compound `COc1ccc(CCCN2C(=O)N(NS(N)(=O)=O)CC2c2ccc(OC)cc2)cc1` (centres unmarked) [Compound 44, 1-(Sulfamoylamino)-3-[3-(4-methoxyphenyl)propyl]-4-[(4-methoxy)phenyl]-2-imidazolidinone] had an inhibition at 1 µM on Kv1.5 of 60%. Moreover, the inhibition at 10 µM at HERG came to 22%. In addition, the negative logarithm of the IC50 (pIC50) in the data set on L-type calcium channels is 4.60.
Regarding `COc1ccc(CCN2C(=O)N(NS(C)(=O)=O)CC2c2ccc(OC)cc2)cc1` (centres unmarked) [Compound 23, 1-(Methylsulfonylamino)-3-[2-(4-methoxyphenyl)ethyl]-4-(4-methoxyphenyl)-2-imidazolidinone], on Kv1.5, the inhibition at 1 µM was determined as 66% and the negative-log IC50 (pIC50) was 6.15. Further, on HERG, the pIC50 is 4.63 and the inhibition at 10 µM turned out to be 21%. Moreover, the pIC50 with L-type calcium channels is 4.52.
For `COc1ccc(CCCN2C(=O)N(NS(C)(=O)=O)CC2c2ccc(C3CC3)cc2)cc1` (centres unmarked) [Compound 48, 1-(Methylsulfonylamino)-3-[3-(4-methoxyphenyl)propyl]-4-[(4-cyclopropyl)-phenyl]-2-imidazolidinone] the same measures were 96%, 6.64, 5.44, 70% and 5.05.
On Kv1.5, `COc1ccc(CCN2C(=O)N(NS(C)(=O)=O)CC2c2ccc3c(c2)OC(C)(C)O3)cc1` (centres unmarked) [Compound 18, 1-(Methylsulfonylamino)-3-[2-(4-methoxyphenyl)ethyl]-4-(2,2-dimethylbenzo-[1,3]dioxol-5-yl)-2-imidazolidinone] yielded an inhibition at 1 µM of 59%. The inhibition at 10 µM on HERG was 12%. The pIC50 in the data set on L-type calcium channels was 4.62.
For `COc1ccc(CCN2C(=O)N(NS(=O)(=O)CF)CC2c2ccc(C3CC3)cc2)cc1` (centres unmarked) [Compound 34, 1-(Fluoromethylsulfonylamino)-3-[2-(4-methoxyphenyl)ethyl]-4-(4-cyclopropyl-phenyl)-2-imidazolidinone] the same measures were 98%, 38% and 4.74.
For `COc1ccc(CCN2C(=O)N(N(CCn3ccnc3)C(C)=O)CC2c2ccc(C(C)(C)C)cc2)cc1` (centres unmarked) [Compound 100, 1-N-[2-(Imidazol-1-yl)ethyl]-N-[acetyl]amino-3-[2-(4-methoxyphenyl)ethyl]-4-[(4-tert-butyl)phenyl]-2-imidazolidinone] the same measures were 46%, 92% and 4.80.
For `COc1ccc(CCN2C(=O)N(NS(=O)(=O)Cc3cccnc3)CC2c2ccc(C)cc2)cc1` (centres unmarked) [Compound 65, 1-[(Pyridin-3-yl)methylsulfonyl]amino-3-[(4-methoxyphenyl)ethyl]-4-(4-methylphenyl)-2-imidazolidinone] the same measures were 88%, 38% and 4.51.
In the case of `COc1ccc(CCCN2C(=O)N(NS(=O)(=O)CC(N)=O)CC2c2ccc(C3CC3)cc2)cc1` (centres unmarked) [Compound 104, 1-[(2-Amino-2-oxoethyl)sulfonylamino]-3-[3-(4-methoxyphenyl)propyl]-4-(4-cyclopropylphenyl)-2-imidazolidinone], the inhibition at 1 µM against Kv1.5 was 87%. The compound further came in with an inhibition at 10 µM on HERG of 56%. Further, the pIC50 in the data set with L-type calcium channels is 4.68.
